Experiment [1] concerns kanamycin-binding DNA aptamer (DNA, aptamer) TGGGGGTTGAGGCTAAGCCGA
Description: TO fluorescent intercalator displacement. The following applies: 10 mM NaCl, 10 mM Tris-HCl pH 7.2, 25 °C.

For experiment [2] the test system is unchanged. Description: fluorescence enhancement. The following applies: 10 mM NaCl; 10 mM Tris-HCl pH 7.2, 25 °C; excitation 501 nm, emission 530 nm.
The subject of experiment [3] is Mut1 (DNA, aptamer) TGGGGGTTGAAACTAAGCCGA
Briefly: fluorescence enhancement. The settings on record: 10 mM NaCl; 10 mM Tris-HCl pH 7.2, 25 °C; excitation 501 nm, emission 530 nm.

Experiment [4] has as its system Mut2 (DNA, aptamer) TGGAAATTGAGGCTAAGCCGA
Description: TO fluorescent intercalator displacement. The settings on record: 10 mM NaCl; 10 mM Tris-HCl pH 7.2, 25 °C; TO displaced; affinity comparable to parent aptamer.

Setting [5] is: TO tracer 3.5:1 to DNA, tested at 20 µM.

In the case of `CC1(C)S[C@@H]2[C@H](NC(=O)[C@H](N)c3ccccc3)C(=O)N2[C@H]1C(=O)O`, in experiment [1] (setting [5]), the binding entry was “no”.

On to `CN(C)[C@@H]1C(=O)C(C(N)=O)=C(O)[C@@]2(O)C(=O)C3=C(O)c4c(O)cccc4[C@@](C)(O)[C@H]3[C@H](O)[C@@H]12`, for which the binding entry in experiment [1] (setting [5]) is on record as “no”. Still for that read-out and setting: to `CN(C)[C@@H]1C(O)=C(C(N)=O)C(=O)[C@@]2(O)C(O)=C3C(=O)c4c(O)ccc(Cl)c4[C@@](C)(O)[C@H]3C[C@@H]12` belongs “no”. With `CN1C(=Cc2cc[n+](C)c3ccccc23)Sc2ccccc21`, the binding result in experiment [2] is “yes”; in experiment [3] it was “weak”. `CN[C@@H]1[C@H](O[C@H]2[C@H](O[C@H]3[C@H](O)[C@@H](O)[C@H](N=C(N)N)[C@@H](O)[C@@H]3N=C(N)N)O[C@@H](C)[C@]2(O)C=O)O[C@@H](CO)[C@H](O)[C@H]1O`: in experiment [1] (setting [5]), the binding entry was “no”. Still for that read-out and setting: the entry for `COc1cc(NS(=O)(=O)c2ccc(N)cc2)nc(OC)n1` is “no”. As for `NC[C@H]1O[C@H](O[C@H]2[C@H](O)[C@@H](O[C@H]3O[C@H](CO)[C@@H](O)[C@H](N)[C@H]3O)[C@H](N)C[C@@H]2N)[C@H](O)[C@@H](O)[C@@H]1O`, the binding result in experiment [1] (TO displaced, kanamycin 0.1-100 µM) is “yes”; in experiment [4], “yes”. For `O=C(N[C@H](CO)[C@H](O)c1ccc([N+](=O)[O-])cc1)C(Cl)Cl`, in experiment [1] (setting [5]), the binding result is “no”.

For the origin of these results see publication PMC4311242 (2015).
